# Where “and” joins values, the source holds several entries; their conditions need not be identical. Equal entries are not always repeated. Where two headings read alike, the source gives them in different places.
# Key:
# RPtag (large) [1] = assay: Fluorescence anisotropy Kd of rhodamine labeled RPtag (small) peptides for RPtag (large); format: binding, Thermoanaerobacter tengcongensis; details: Example 6, 1 nM rhodamine labeled native RPtag (small)
# Description: (§1) 50 nM of RP-Tag Small (see Sequence 3, below) with an N-terminal Rhodamine B label was incubated with increasing concentrations of either RP-Tag Large (see Sequence 2) or Bovine Serum Albumin (BSA) in 50 mM Tris pH 8.0, 150 mM NaCl, 10 mM 2-mercaptoethanol, and 0.005% Tween 20 for 5 min in black 96-well plates at room temperature.
# (§2) Anisotropy was then measured, and a Kd calculated by fitting the data to the equation f=y0+(ymax−y0)*(Ptot+x+Kd−sqrt((Ptot+x+Kd)^2−4*Ptot*x))/(2*Ptot), where y0 is the baseline anisotropy, ymax is the maximum anisotropy, Ptot is the fixed concentration of labeled peptide used, x is the variable concentration of protein used, and Kd is the measured Kd.
# (§3) The indicated concentrations of RPtag (large) and an anti-His tag antibody (4E3D10H2/E3 purchased from ThermoFisher Scientific) were incubated with 1 nM rhodamine labeled native RPtag (small) peptide and 6×His peptide (Rhodamine-GHHHHHH), respectively, and fluorescence anisotropy measured. BSA incubated with native rhodamine labeled RPtag(small) is included as a control for non-specific binding. Kd's were calculated according to the equation f=y0+(ymax−y0)*(Ptot+x+Kd−sqrt((Ptot+x+Kd)^2−4*Ptot*x))/(2*Ptot), where y0 is the baseline anisotropy, ymax is the maximum anisotropy, Ptot is the fixed concentration of labeled peptide used, x is the variable concentration of protein used, and Kd is the measured Kd. We measured a Kd of 0.2±0.1 nM for RPtag(large) binding RPtag(small), and a Kd of 6±1 nM for the antibody/6×His tag pair.
# Regarding the studies shown in FIG. 14, increasing concentrations of unlabeled RPtag large with the indicated mutations (native, f137d, and f137e) were incubated for 1 h with 1 nM rhodamine labeled RPtag small peptide and the fluorescence anisotropy was measured. Resultant curves were fit with the equation f=y0+(ymax−y0)*(Ptot+x+Kd−sqrt((Ptot+x+Kd)^2−4*Ptot*x))/(2*Ptot), where y0 is the baseline anisotropy, ymax is the maximum anisotropy, Ptot is the fixed concentration of labeled peptide used, x is the variable concentration of protein used, and Kd is the measured Kd. Data are presented here as Ka=1/Kd. Log transformed Ka's were then compared by one-way ANOVA with Holm-Sidak post hoc correction. ***p<0.001, **p<0.01, *p<0.05. data are mean±SEM (n=3-4). Buffer was 50 mM Tris pH 8.0, 0.005% tween20. Proteins were expressed and purified by single step NiNTA chromatography as before. Peptides were synthesized solid-state and handled as previous.
# RPtag (large) [2] = assay: Association/dissociation kinetics of RPtag (small) peptides with RPtag (large) by fluorescence anisotropy; format: binding, Thermoanaerobacter tengcongensis
# Description: Panel a depicts representative association rate kinetics traces varying native RPtag small. Rhodamine labeled RPtag small at the indicated concentration was incubated with unlabeled RPtag large and the association measured by fluorescence anisotropy. L-S complex concentration was calculated by the equation (r−rmin)/(rmax−rmin)*[S] where r is the measured anisotropy, rmin is the anisotropy in the absence of any RPtag large, rmax is the anisotropy measured in the presence of at saturating RPtag large, and [S] is the total concentration of RPtag small used in the experiment. […] Dashed cyan lines are simulations of the mechanism shown in f using the rate constants detailed herein. The concentrations in the simulations were multiplied by a correction factor of 0.925, which is well within the 90% purity specification of the purchased peptide.
# LS complex was performed by incubating 1000 nM RPtag large with the indicated concentrations of rhodamine labeled RPtag small. At the start of the experiment, 0.1 mM unlabeled native RPtag small was added and fluorescence anisotropy monitored. Data processing was done as in panel a, except the red fits were to the single exponential decay equation y=y0+A*exp(−b*t). As expected, the initial dissociation rates were linear with respect to the LS complex.
# Fitting to a line yields a rate constant (koff)=0.0091 min^−1 (FIG. 9 panel e). In good agreement, when the kinetics are fit with a first order rate law, a rate constant of 0.012±0.002 min^−1 (n=15) was observed. […] Panel e is a graph of the initial rates of the traces represented in d. Slope of the fit line is 0.0091 min^−1. Data are mean±SE (n=3).
# The library of mutant RPtag(small) peptides, described above, was next analyzed to measure off rates (koff). The on rate was also calculated from measured koff and Kd (S*-LS transition), except instead of using unlabeled native peptide as the competitor, we used unlabeled Nd2,P5A,E18A (the tightest binding RPtag(small) peptide identified). […] However, there were notable exceptions. […] This indicates, without wishing to be limited, that P5 may constrain the structure of the peptide. The increased flexibility imparted to the peptide by the P5A mutation may decrease the energy barrier required for binding/unbinding.
# RPtag (large) [3] = assay: Buffer additive screen, Kd by fluorescence anisotropy; format: binding, Thermoanaerobacter tengcongensis
# Description: To determine reagent compatibility with the disclosed system, an additive screen was performed, wherein the Kd between RPtag (large) and 3 RPtag (small) peptides—native, Nd8Cd4, and Nd2p5ae18a—were tested in the presence of several common buffer additives (Table 3).
# [4] = target: Bovine Serum Albumin (BSA) (Bos taurus, UniProt P02769); format: binding; details: fluorescence anisotropy, rhodamine labeled peptide, up to 10 μM BSA
# Description: as §1, §2, §3
# [5] = tested on: Bovine Serum Albumin (BSA); format: binding
# Description: as §1, §2, §3
# RPtag(large) = assay: pH profile of Kd by fluorescence anisotropy; format: binding, Thermoanaerobacter tengcongensis; details: buffers pH 1.5 to 13
# Description: The Kds of Nd8,Cd4 for RPtag(large) was measured in the presence of buffers of different pHs ranging from 1.5 to 13.
# For these experiments, Kds were measured by fluorescence anisotropy as described above in the following buffers, all at 100 mM with 0.005% Tween 20: glycine pH 1.5, glycine pH 2.0, glycine pH 3.0, acetate pH 4.5, 2-(N-morpholino)ethanesulfonic acid pH 6.0, tris pH 7.0, tris pH 7.5, tris pH 8.0, tris pH 8.5, borate pH 10.0, phosphate pH 11.5, phosphate pH 13.0.
# [6] = tested on: immobilized RPtag(large) column; assay: Native elution from immobilized RPtag(large) column (3 M NaCl binding, 3 M imidazole elution); set-up: species or system Thermoanaerobacter tengcongensis; details: bound in 100 mM Tris pH 8.0, 3 M NaCl, 0.005% Tween20
# Description: Because of the observed stabilizing character of NaCl and destabilizing character of imidazole on Nd8Cd4 binding, these reagents, among others, were incorporated into a novel buffering system for use with the disclosed proteins, peptides, systems, and methods. In particular, the effect of this novel buffer on binding of RPtag (small) Nd8Cd4 to an immobilized RPtag(large) column was studied. These experiments included eluting both (1) rhodamine labeled peptide and (2) N-terminally RPtag(small) Nd8Cd4 tagged with tagRFP from a column under native conditions. Generally, native conditions is taken to mean at or near biological conditions under which many proteins are folded, e.g. pH 4-9 at moderate temperature (4° C.-30° C.) in the absence of denaturants (e.g. guanidine hydrochloride, urea, SDS). This is in contrast to denaturing conditions, which generally rely on extreme pH (e.g. ≤2) denaturants, or high temperature to unfold proteins.
# Briefly, columns, as described above, were first equilibrated with 10 mL 100 mM Tris pH 8.0, 3 M NaCl, 0.005% Tween20. Next, 1 mL of 10 uM rhodamine-tagged Nd8Cd4 or tagRFP containing an N-terminal RPtag (small) Nd8Cd4 tag was applied in the same buffer. The column was then washed with 10 mL of the same buffer. Finally, bound target molecules were eluted with 10 mL of 100 mM Tris pH 8.0, 3 M imidazole, 0.005% Tween20.
# [7] = tested on: rhodamine labeled RPtag (small); assay: Sequential boiling/recovery trials, fraction binding of RPtag (large); set-up: species or system Thermoanaerobacter tengcongensis
# Description: The ability of the disclosed proteins and peptides to function after being subjected to thermal stress was also tested. Here again the RPtag (large) and anti-6×His antibody were selected for analysis. Briefly, the RPtag(large) or the anti-6×His antibody was subjected to sequential rounds of boiling and recovery. Specifically, the proteins were subjected to sequential rounds of: 5 min boiling in buffer, followed by recovery for 1 min on ice. After each round of boiling/recovery, the proteins were assayed for binding to their corresponding epitopes and the results plotted.
# RPtag (large) and an the anti-His tag antibody (4E3D10H2/E3 purchased from ThermoFisher Scientific) were placed in a solution at about 0.1-1 μM [final] in a buffer of 50 mM Tris pH 8.0, 0.005% Tween20. The protein solutions were repeatedly heated for 5 min at 95° C. and then recovered on ice for 1 min. After each round of heating/cooling, an aliquot was taken and diluted to 100 nM, and incubated with 100 nM either rhodamine labeled RPtag (small) or rhodamine labeled 6x-His peptide (sequence: Rhodamine-GHHHHHH), and the fluorescence anisotropy measured. Fraction binding was calculated via the equation F=(r−rmin)/(r0−rmin) where F is the fraction binding, r is the measured anisotropy, rmin is the anisotropy in the absence of binding protein, and r0 is the anisotropy before any boiling trials.
# RPtag(small) (Nd2Cd4) = assay: Fluorescence anisotropy Kd of RPtag(large) variants for control RPtag(small) peptide Nd2Cd4; format: binding, Thermoanaerobacter tengcongensis; details: 2 nM rhodamine labeled Nd2Cd4
# Description: An initial Kd was measured between RPtag(large) and the PDGF-β N-terminal peptide (FIG. 16). […] Next, competition experiments were performed using the mutant RPtag(small) peptide Nd2,P5A,E18A.
# Kds were measured by incubating increasing concentrations of unlabeled RPtag large mutant with either 20 nM rhodamine labeled PDGF-β n-terminal peptide or 2 nM rhodamine labeled Nd2Cd4 variant of RPtag small, as it has the same number of amino acids as the PDGF-β peptide but contains the native binding sequence. After the incubation, fluorescence anisotropy was measured, and the resultant curves were fit with the equation f=y0+(ymax−y0)*(Ptot+x+Kd−sqrt((Ptot+x+Kd)^2−4*Ptot*x))/(2*Ptot), where y0 is the baseline anisotropy, ymax is the maximum anisotropy, Ptot is the fixed concentration of labeled peptide used, x is the variable concentration of protein used, and Kd is the measured Kd. Data are presented here as Ka=1/Kd. Log transformed Ka's were then compared by one-way ANOVA relative to wt control with Holm-Sidak post hoc correction. ***p<0.001, **p<0.01, *p<0.05. data are mean±SEM (n=3-4). Buffer was 50 mM Tris pH 8.0, 0.005% Tween20. For the sake of comparison, the double mutant h122l,a253a is shown on the same axes, but was not included in the statistical analysis as the experiment was done after the initial results identified the two single mutants.
# Bovine Serum Albumin (BSA) (Bos taurus, UniProt P02769), sequence (P02769 25-607): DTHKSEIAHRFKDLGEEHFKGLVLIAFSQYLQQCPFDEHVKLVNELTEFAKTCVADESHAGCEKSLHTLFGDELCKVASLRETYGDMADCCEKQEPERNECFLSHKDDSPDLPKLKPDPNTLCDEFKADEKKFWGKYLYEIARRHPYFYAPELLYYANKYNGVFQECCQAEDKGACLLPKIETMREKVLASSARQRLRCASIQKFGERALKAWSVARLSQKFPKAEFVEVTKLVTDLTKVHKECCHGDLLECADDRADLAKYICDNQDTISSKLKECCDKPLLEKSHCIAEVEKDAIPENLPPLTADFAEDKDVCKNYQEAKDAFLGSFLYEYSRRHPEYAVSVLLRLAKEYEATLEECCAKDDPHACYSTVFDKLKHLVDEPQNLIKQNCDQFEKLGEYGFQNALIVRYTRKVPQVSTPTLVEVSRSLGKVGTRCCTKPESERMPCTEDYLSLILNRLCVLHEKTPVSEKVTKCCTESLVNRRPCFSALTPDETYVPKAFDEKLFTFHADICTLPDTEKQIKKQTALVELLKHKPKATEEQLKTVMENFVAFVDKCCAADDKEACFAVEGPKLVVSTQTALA
Molecule,Kd (RPtag (large) [1]),slope of initial velocity line using S (total) (RPtag (large) [2]; 1000 nM RPtag(large)) [min⁻¹],"rate constant for conversion of S to S* from linear fit of initial rate plot, S (corrected) (RPtag (large) [2]; 1000 nM RPtag(large), 0.6 to 10 nM RPtag (small)) [min⁻¹]","dissociation rate constant from first order rate law fit (RPtag (large) [2]; 0.1 mM unlabeled native RPtag small competitor, n=15) [min⁻¹]","koff (RPtag (large) [2]; LS dissociation, unlabeled competitor peptide, listed as native RPtag (small)) [s⁻¹]","kr (RPtag (large) [2]; S* to S reverse rate constant, calculated from Keq and kf, listed as native RPtag (small)) [min⁻¹]","kon (M^−1 min^−1 ) (×10^7) (RPtag (large) [2]; S*-LS transition, calculated from measured koff and Kd)",Kd (RPtag (large) [3]; Gdn-HCl (6M)) [nM],Kd (RPtag (large) [3]; SDS (2%)) [nM],Kd (RPtag (large) [3]; imidazole (3M)) [nM],Kd (RPtag (large) [3]; urea (8M)) [nM],binding to BSA ([4]; listed as RPtag (small)),binding to BSA ([4]; listed as native RPtag (small)),selectivity over non-specific (BSA) interaction [5],pH of relative maximum affinity (RPtag(large)) [pH],"elution behaviour with 100 mM Tris pH 8.0, 3 M imidazole [6]",stability relative to commercially available products [7],Kd (RPtag(small) (Nd2Cd4)) [nM]
GEKIPNFIPAELKLITKENVQ [native],0.2 nM and ~0.2 nM,0.035,0.091,0.012 ± 0.002,0.000152,0.056,4.3 ± 0.1 ×10^7 M^−1 min^−1,> 10000,> 10000,> 10000,> 10000,no detectable binding,no interaction was detected,"> 50,000 fold",~8,diffuse band,–,–
"RPtag (large): RB protein fragment a.a. 1-257 from Thermoanaerobacter tengcongensis; SEQ ID NO: 3 with tags and Cys (protein, tags and added Cys) MGSSCHHHHHHSQDPNSSSMKEGKTIGLVISTLNNPFFVTLKNGAEEKAKELGYKIIVEDSQNDSSKELSNVEDLIQQKVDVLLINPVDSDAVVTAIKEANSKNIPVITIDRSANGGDVVSHIASDNVKGGEMAAEFIAKALKGKGNVVELEGIPGASAARDRGKGFDEAIAKYPDIKIVAKQAADFDRSKGLSVMENILQAQPKIDAVFAQNDEMALGAIKAIEAANRQGIIVVGFDGTEDALKAIKEGKMAATIAQQPALMGSLGVEMADKYLK",–,–,–,–,–,–,–,–,–,–,–,–,–,–,–,–,at least 10 fold,0.41

# — patent US11414454B2, “Compositions, methods, and systems for affinity-based protein identification and purification” (Auctus Biologies, Inc., priority 2017, dated 2022)
